Patent US12371410B2, “Isoxazoline compounds and use thereof” (METISA BIOTECHNOLOGY CO., LTD, priority 2019, dated 2025)

Assays:
Assay type in all cases: in vivo
Leucania separata = assay: Insecticidal activity against Leucania separata, Airbrush spraying of corn leaf segments; conditions: Mythimna separata, foliar, 72 h; dose 0.05 mg/L, three days after administration, 3rd instar larvae; read-out: lethality rate to Leucania separata
Experimental: (§1) The compound to be determined was dissolved in a mixed solvent of acetone/methanol (1:1), followed by dilution with water containing 0.1% (wt) Tween 80 to a desired concentration.
(§2) The activities of the respective compounds against Leucania separata, Plutella xylostella, and Chilo suppressalis were determined by Airbrush spraying method.
(§3) The determination method was as follows: Corn leaves were cut into 2 cm long segments; the pressure of Airbrush spraying was 10 psi (about 0.7 kg/cm^2); both sides of each leaf segment were sprayed with 0.5 mL of the compound solution to be tested. After drying in the shade, ten 3nd instar larvae were inoculated for each treatment, and each treatment was replicated 3 times. After treatment, they were cultured in an observation room at a temperature of 25° C. and a relative humidity of 60-70%, and the number of surviving insects was examined and the mortality was calculated three days after administration.

Plutella xylostella = assay: Insecticidal activity against Plutella xylostella, Airbrush spraying of cabbage leaf discs; conditions: foliar, 72 h; for pest or weed control at 0.313 µg/mL: dose 0.313 mg/L; for pest or weed control at 0.313 µg/mL / pest or weed control at 0.156 µg/mL: three days after administration, 3rd instar larvae, read-out: lethality rate to Plutella xylostella; for mortality at 0.156 µg/mL: 0.156 mg/L, read-out: Mortality (%, 3 days after administration) 0.156 mg/L; for mortality at 0.156 µg/mL / mortality at 0.313 µg/mL / mortality at 0.625 µg/mL / mortality at 1.25 µg/mL: parallel comparative test; for mortality at 0.313 µg/mL: 0.313 mg/L, read-out: Mortality (%, 3 days after administration) 0.313 mg/L; for mortality at 0.625 µg/mL: 0.625 mg/L, read-out: Mortality (%, 3 days after administration) 0.625 mg/L; for mortality at 1.25 µg/mL: 1.25 mg/L, read-out: Mortality (%, 3 days after administration) 1.25 mg/L; for pest or weed control at 0.156 µg/mL: dose 0.156 mg/L
Experimental: as §1, §2
as §3, with “Cabbage” for “Corn”, “made” for “cut”, “into leaf discs with a diameter of” for “into”, “by using a hole puncher;” for “long segments;”, “disc” for “segment”, “3rd” for “3nd”

Chilo suppressalis = assay: Insecticidal activity against Chilo suppressalis, spraying of rice seedlings; conditions: 72 h; for mortality at 0.25 µg/mL: 0.25 mg/L, read-out: Mortality (%, 3 days after administration) 0.25 mg/L; for mortality at 0.25 µg/mL / mortality at 0.5 µg/mL / mortality at 1 µg/mL / mortality at 5 µg/mL: parallel comparative test; for mortality at 0.5 µg/mL: 0.5 mg/L, read-out: Mortality (%, 3 days after administration) 0.5 mg/L; for mortality at 1 µg/mL: 1 mg/L, read-out: Mortality (%, 3 days after administration) 1 mg/L; for mortality at 5 µg/mL: 5 mg/L, read-out: Mortality (%, 3 days after administration) 5 mg/L; for pest or weed control at 1 µg/mL: dose 1 mg/L; for pest or weed control at 1 µg/mL / pest or weed control at 0.5 µg/mL: 3 days after administration, 3rd instar larvae, read-out: lethality rate to Chilo suppressalis; for pest or weed control at 0.5 µg/mL: dose 0.5 mg/L
Experimental: as §1, §2
The determination method was as follows: 1) Preparation of rice seedlings: rice plants were cultivated in a plastic cup with a diameter of 4.5 cm and a height of 4 cm in a thermostatic chamber (temperature 26-28° C., relative humidity 60-80%, illumination 16 hL: 8 hD), and when the rice plants were developed to have 4-5 leaves, strong seedlings with identical growth vigour were selected for chemical treatment, and each treatment was replicated 3 times. 2) Preparation of insects to be tested: Chilo suppressalis, 3rd instar larvae, continuous lab rearing. 3) Inoculation of insects by spraying rice plant stems: The whole rice seedlings were sprayed evenly by using the spraying method, with 15 mL of the compound solution for each treatment. Firstly, the blank control was treated, and then the above procedure was replicated according to the order of test concentration from low to high. After rice seedlings were spray-treated, they were placed in the shade to dry, and the stems about 5 cm from the stem bases were cut off to feed the insects to be tested. Glass culture dishes with a diameter of 90 mm were prepared; each dish was padded with a filter paper at the bottom and added with water to keep moisture; about 5 rice stems were put into each dish and inoculated with 10 larvae, and each culture dish was then sealed with a non-woven and cultured in a thermostatic chamber. The number of residual live insects was examined 3 days after administration.

Tetranychus cinnabarinus = assay: Acaricidal activity against Tetranychus cinnabarinus in greenhouse, bean seedling spraying; conditions: solution concentration 5 mg/L, adult mites, after 72 hours, read-out: lethality rate to Tetranychus cinnabarinus
Experimental: A bean seedling with two true leaves was taken for inoculating 30-40 adult mites of Tetranychus cinnabarinus. After examining the cardinal number, the whole seedling was treated by spraying with a hand-held sprayer, each treatment being replicated 3 times, and then placed in a standard observation room. The number of surviving mites was examined after 72 hours, and the mortality was calculated.

SMILES	pest or weed control at 0.05 µg/mL (Leucania separata)	pest or weed control at 0.313 µg/mL (Plutella xylostella)	mortality at 0.25 µg/mL (Chilo suppressalis)	mortality at 0.5 µg/mL (Chilo suppressalis)	mortality at 1 µg/mL (Chilo suppressalis)	mortality at 5 µg/mL (Chilo suppressalis)	pest or weed control at 1 µg/mL (Chilo suppressalis)	pest or weed control at 5 µg/mL (Tetranychus cinnabarinus)	mortality at 0.156 µg/mL (Plutella xylostella)	mortality at 0.313 µg/mL (Plutella xylostella)	mortality at 0.625 µg/mL (Plutella xylostella)	mortality at 1.25 µg/mL (Plutella xylostella)	pest or weed control at 0.156 µg/mL (Plutella xylostella)	pest or weed control at 0.5 µg/mL (Chilo suppressalis)
Cc1cc(C2=NOC(c3cc(Cl)cc(Cl)c3)(C(F)(F)F)C2)ccc1C(=O)N(CC(=O)NCC(F)(F)F)C(=O)C1CC1 (stereo not shown) [Compound 1]	> 90%	> 90%	73.3%	83.3%	100%	100%	> 90%	≥ 90%						
Cc1cc(C2=NOC(c3cc(Cl)c(F)c(Cl)c3)(C(F)(F)F)C2)ccc1C(=O)N(CC(=O)NCC(F)(F)F)C(=O)C1CC1 (stereo not shown) [Compound 2]	> 90%	> 90%					> 90%	≥ 90%						
COCC(=O)N(CC(=O)NCC(F)(F)F)C(=O)c1ccc(C2=NOC(c3cc(Cl)cc(Cl)c3)(C(F)(F)F)C2)cc1C (stereo not shown) [Compound 19]	> 90%	> 90%	86.7%	100%	100%	100%	> 90%	≥ 90%	100%	100%	100%	100%	> 90%	> 90%
CCOCC(=O)N(CC(=O)NCC(F)(F)F)C(=O)c1ccc(C2=NOC(c3cc(Cl)cc(Cl)c3)(C(F)(F)F)C2)cc1C (stereo not shown) [Compound 21]	> 90%	> 90%					> 90%	≥ 90%					> 90%	> 90%
CCOCC(=O)N(CC(=O)NCC(F)(F)F)C(=O)c1ccc(C2=NOC(c3cc(Cl)c(F)c(Cl)c3)(C(F)(F)F)C2)cc1C (stereo not shown) [Compound 22]	> 90%	> 90%					> 90%	≥ 90%					> 90%	
CCCCOCC(=O)N(CC(=O)NCC(F)(F)F)C(=O)c1ccc(C2=NOC(c3cc(Cl)cc(Cl)c3)(C(F)(F)F)C2)cc1C (stereo not shown) [Compound 27]	> 90%	> 90%					> 90%	≥ 90%					> 90%	> 90%
COCCC(=O)N(CC(=O)NCC(F)(F)F)C(=O)c1ccc(C2=NOC(c3cc(Cl)cc(Cl)c3)(C(F)(F)F)C2)cc1C (stereo not shown) [Compound 31]	> 90%	> 90%	80%	96.7%	100%	100%	> 90%	≥ 90%	100%	100%	100%	100%	> 90%	> 90%
CCOCCC(=O)N(CC(=O)NCC(F)(F)F)C(=O)c1ccc(C2=NOC(c3cc(Cl)cc(Cl)c3)(C(F)(F)F)C2)cc1C (stereo not shown) [Compound 33]	> 90%	> 90%					> 90%	≥ 90%					> 90%	> 90%
CCOCCC(=O)N(CC(=O)NCC(F)(F)F)C(=O)c1ccc(C2=NOC(c3cc(Cl)c(F)c(Cl)c3)(C(F)(F)F)C2)cc1C (stereo not shown) [Compound 34]	> 90%	> 90%					> 90%	≥ 90%					> 90%	
COC(=O)N(CC(=O)NCC(F)(F)F)C(=O)c1ccc(C2=NOC(c3cc(Cl)cc(Cl)c3)(C(F)(F)F)C2)cc1C (stereo not shown) [KC1, reference compound]			0%	0%	0%	10%		0%	20%	36.7%	70%	100%		
CC(=O)N(CC(=O)NCC(F)(F)F)C(=O)c1ccc(C2=NOC(c3cc(Cl)cc(Cl)c3)(C(F)(F)F)C2)cc1C (stereo not shown) [KC2, reference compound]			0%	53.3%	100%	100%								
CCC(=O)N(CC(=O)NCC(F)(F)F)C(=O)c1ccc(C2=NOC(c3cc(Cl)cc(Cl)c3)(C(F)(F)F)C2)cc1C (stereo not shown) [KC3, reference compound]			0%	30%	100%	100%								
